Experimental findings from patent US20260374756A1, “HETEROCYCLIC COMPOUNDS AS INHIBITORS OF MONOACYLGLYCEROL LIPASE (MAGL)” (Hoffmann-La Roche Inc., priority 2022, published 2026) are described below.

What is called IC50 is the midpoint of a concentration-inhibition curve. Low values mean greater potency, high ones weaker potency.

The target of the experiment is T1, hMAGL (Homo sapiens, UniProt Q99685).
T1 sequence (Q99685 1-303): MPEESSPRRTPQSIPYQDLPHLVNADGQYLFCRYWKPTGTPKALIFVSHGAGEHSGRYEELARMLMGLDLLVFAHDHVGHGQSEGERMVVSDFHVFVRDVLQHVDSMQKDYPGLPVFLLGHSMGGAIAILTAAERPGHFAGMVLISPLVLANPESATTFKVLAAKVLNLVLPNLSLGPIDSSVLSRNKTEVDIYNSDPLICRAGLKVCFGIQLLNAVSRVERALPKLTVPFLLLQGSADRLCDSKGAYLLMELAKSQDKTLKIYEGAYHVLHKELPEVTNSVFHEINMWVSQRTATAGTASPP
The experiment in a line: 2-AG assay: MAGL inhibition, hydrolysis of 2-arachidonoylglycerol to arachidonic acid followed by mass spectrometry. Format: biochemical. Put shortly: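 MAGL preincubated with compound 15 min at RT in 50 mM Tris, 1 mM EDTA, 0.01% Tween-20, 2.5% DMSO; reaction started with 8 μM 2-AG (final), […], 30 min at RT. Quenched with acetonitrile containing d8-arachidonic acid; arachidonic acid quantified by RapidFire SPE-triple quad MS as arachidonic acid/d8 ratio.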
For `O=C(N1CC2(CC(n3cnc(C4CC4)n3)C2)C1)N1CC2(CN(Cc3cc(C4CCC4)[nH]n3)C2)C1` [Example 274, [6-[(5-cyclobutyl-1H-pyrazol-3-yl)methyl]-2,6-diazaspiro[3.3]heptan-2-yl]-[6-(3-cyclopropyl-1,2,4-triazol-1-yl)-2-azaspiro[3.3]heptan-2-yl]methanone], the concentration for half-maximal inhibition (IC50) amounted to 5.29 nM.

Consider `CC(C)(C)n1nccc1CN1CC2(C1)CN(C(=O)N1CC3(CC(n4cnc(C(F)(F)F)n4)C3)C1)C2` [Example 275, [6-[(2-tert-butylpyrazol-3-yl)methyl]-2,6-diazaspiro[3.3]heptan-2-yl]-[6-[3-(trifluoromethyl)-1,2,4-triazol-1-yl]-2-azaspiro[3.3]heptan-2-yl]methanone], for which half-maximal inhibition (IC50) required 132 nM. `CC(C)(C)n1nccc1CN1CC2(C1)CN(C(=O)N1CC3(CC(n4cnc(C5CC5)n4)C3)C1)C2` [Example 276, [6-[(2-tert-butylpyrazol-3-yl)methyl]-2,6-diazaspiro[3.3]heptan-2-yl]-[6-(3-cyclopropyl-1,2,4-triazol-1-yl)-2-azaspiro[3.3]heptan-2-yl]methanone]: the IC50 was found to be 13.6 nM. Under `Cn1nccc1CN1CC2(C1)CN(C(=O)N1CC3(CC(n4cnc(C5CC5)n4)C3)C1)C2` [Example 277, [6-(3-cyclopropyl-1,2,4-triazol-1-yl)-2-azaspiro[3.3]heptan-2-yl]-[6-[(2-methylpyrazol-3-yl)methyl]-2,6-diazaspiro[3.3]heptan-2-yl]methanone] stands 355 nM; under `O=C(N1CC2(CC(n3cnc(C4CC4)n3)C2)C1)N1CC2(CN(Cc3cnc(C(F)F)s3)C2)C1` [Example 279, [6-(3-cyclopropyl-1,2,4-triazol-1-yl)-2-azaspiro[3.3]heptan-2-yl]-[6-[[2-(difluoromethyl)thiazol-5-yl]methyl]-2,6-diazaspiro[3.3]heptan-2-yl]methanone], 9.22 nM; under `Cn1cnc(C#N)c1CN1CC2(C1)CN(C(=O)N1CC3(CC(n4cnc(C(F)(F)F)n4)C3)C1)C2` [Example 280, 1-methyl-5-[[2-[6-[3-(trifluoromethyl)-1,2,4-triazol-1-yl]-2-azaspiro[3.3]heptane-2-carbonyl]-2,6-diazaspiro[3.3]heptan-6-yl]methyl]imidazole-4-carbonitrile], 636 nM. For the compound `Cn1cnc(C#N)c1CN1CC2(C1)CN(C(=O)N1CC3(CC(n4cnc(C5CC5)n4)C3)C1)C2` [Example 281, 5-[[2-[6-(3-cyclopropyl-1,2,4-triazol-1-yl)-2-azaspiro[3.3]heptane-2-carbonyl]-2,6-diazaspiro[3.3]heptan-6-yl]methyl]-1-methyl-imidazole-4-carbonitrile], half-maximal inhibition (IC50) was put at 164 nM. As for `Cn1cnc(C#N)c1CN1CC2(C1)CN(C(=O)N1CC3(CC(n4cnc(C5(O)CC5)n4)C3)C1)C2` [Example 282, 5-[[2-[6-[3-(1-hydroxycyclopropyl)-1,2,4-triazol-1-yl]-2-azaspiro[3.3]heptane-2-carbonyl]-2,6-diazaspiro[3.3]heptan-6-yl]methyl]-1-methyl-imidazole-4-carbonitrile], the half-inhibitory concentration (IC50) is 3730 nM.

In the case of `O=C(N1CC2(CC(n3cnc(C4CC4)n3)C2)C1)N1CC2(CN(Cc3cc(C4CC4)n[nH]3)C2)C1` [Example 283, [6-[(3-cyclopropyl-1H-pyrazol-5-yl)methyl]-2,6-diazaspiro[3.3]heptan-2-yl]-[6-(3-cyclopropyl-1,2,4-triazol-1-yl)-2-azaspiro[3.3]heptan-2-yl]methanone], the IC50 came out at 8 nM. `O=C(N1CC2(CC(n3cnc(C(F)(F)F)n3)C2)C1)N1CC2(CN(Cc3cc[nH]n3)C2)C1` [Example 284, [6-(1H-pyrazol-3-ylmethyl)-2,6-diazaspiro[3.3]heptan-2-yl]-[6-[3-(trifluoromethyl)-1,2,4-triazol-1-yl]-2-azaspiro[3.3]heptan-2-yl]methanone]: 2310 nM corresponded to half-maximal inhibition (IC50). Consider `O=C(N1CC2(CC(n3cnc(C4CC4)n3)C2)C1)N1CC2(CN(Cc3cnn4ccccc34)C2)C1` [Example 285, [6-(3-cyclopropyl-1,2,4-triazol-1-yl)-2-azaspiro[3.3]heptan-2-yl]-[6-(pyrazolo[1,5-a]pyridin-3-ylmethyl)-2,6-diazaspiro[3.3]heptan-2-yl]methanone], for which the midpoint of inhibition, the IC50, lay at 13.4 nM.

As for `CCc1nsc(CN2CC3(C2)CN(C(=O)N2CC4(CC(n5cnc(C(F)(F)F)n5)C4)C2)C3)n1` [Example 286, [6-[(3-ethyl-1,2,4-thiadiazol-5-yl)methyl]-2,6-diazaspiro[3.3]heptan-2-yl]-[6-[3-(trifluoromethyl)-1,2,4-triazol-1-yl]-2-azaspiro[3.3]heptan-2-yl]methanone], the midpoint of inhibition, the IC50, lay at 120 nM. `CCc1nsc(CN2CC3(C2)CN(C(=O)N2CC4(CC(n5cnc(C6CC6)n5)C4)C2)C3)n1` [Example 287, [6-(3-cyclopropyl-1,2,4-triazol-1-yl)-2-azaspiro[3.3]heptan-2-yl]-[6-[(3-ethyl-1,2,4-thiadiazol-5-yl)methyl]-2,6-diazaspiro[3.3]heptan-2-yl]methanone] yielded an IC50 of 135 nM. On to `Cn1nc(C(F)(F)F)cc1CC1CC2(C1)CN(C(=O)N1CC3(CC(n4cnc(C5(O)CC5)n4)C3)C1)C2` [Example 288, [6-[3-(1-hydroxycyclopropyl)-1,2,4-triazol-1-yl]-2-azaspiro[3.3]heptan-2-yl]-[6-[[2-methyl-5-(trifluoromethyl)pyrazol-3-yl]methyl]-2-azaspiro[3.3]heptan-2-yl]methanone], for which the IC50 amounted to 2.43 nM.

Regarding `Cn1cc(C(F)(F)F)c(CC2CC3(C2)CN(C(=O)N2CC4(CC(n5cnc(C6(O)CC6)n5)C4)C2)C3)n1` [Example 289, [6-[3-(1-hydroxycyclopropyl)-1,2,4-triazol-1-yl]-2-azaspiro[3.3]heptan-2-yl]-[6-[[1-methyl-4-(trifluoromethyl)pyrazol-3-yl]methyl]-2-azaspiro[3.3]heptan-2-yl]methanone], the half-maximal inhibitory concentration (IC50) came out at 2.9 nM. `O=C(N1CC2(CC(Cc3cnn(CC(F)(F)F)c3)C2)C1)N1CC2(CC(c3cc(C4CC4)n[nH]3)C2)C1` [Example 290, [6-(3-cyclopropyl-1H-pyrazol-5-yl)-2-azaspiro[3.3]heptan-2-yl]-[6-[[1-(2,2,2-trifluoroethyl)pyrazol-4-yl]methyl]-2-azaspiro[3.3]heptan-2-yl]methanone] displayed an IC50 of 0.86 nM. The compound `O=C(N1CC2(CC(Cc3cnn(CC(F)(F)F)c3)C2)C1)N1CC2(CC(n3cnc(C4(O)CC4)n3)C2)C1` [Example 291, [6-[3-(1-hydroxycyclopropyl)-1,2,4-triazol-1-yl]-2-azaspiro[3.3]heptan-2-yl]-[6-[[1-(2,2,2-trifluoroethyl)pyrazol-4-yl]methyl]-2-azaspiro[3.3]heptan-2-yl]methanone] gave a concentration for half-maximal inhibition (IC50) of 10.8 nM.

In turn, `O=C(N1CC2(CC(Cn3ncc(C(F)(F)F)n3)C2)C1)N1CC2(CC(n3cnc(C4(O)CC4)n3)C2)C1` [Example 292, [6-[3-(1-hydroxycyclopropyl)-1,2,4-triazol-1-yl]-2-azaspiro[3.3]heptan-2-yl]-[6-[[4-(trifluoromethyl)triazol-2-yl]methyl]-2-azaspiro[3.3]heptan-2-yl]methanone] yielded a half-maximal inhibitory concentration (IC50) of 4.31 nM. In the case of `O=C(N1CC2(CC(Cn3ccc(C(F)(F)F)n3)C2)C1)N1CC2(CC(n3cnc(C4(O)CC4)n3)C2)C1` [Example 293, [6-[3-(1-hydroxycyclopropyl)-1,2,4-triazol-1-yl]-2-azaspiro[3.3]heptan-2-yl]-[6-[[3-(trifluoromethyl)pyrazol-1-yl]methyl]-2-azaspiro[3.3]heptan-2-yl]methanone], 5.1 nM corresponded to half-maximal inhibition (IC50).
